Test results published in PubChem BioAssay (NCI).
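96-well plates; 48 h exposure; 5 concentrations. Endpoints by linear interpolation between flanking doses. Not reached: highest tested concentration assigned. TGI: total growth inhibition.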

Tested on: HOP-62 NSCLC
Assay: NCI anticancer screen, dose series, 48 h

| SMILES | TGI [µM] |
| --- | --- |
| COc1ccc(CCNC2=CC(=O)c3ncccc3C2=O)cc1OC | 7.9 |
| CN(C)C1=Nc2ccccc2C(=S)N2CSCC12 (configuration not stated) | > 100 |
| CC1(C)OCC2OC3(c4nc(C#N)c(N)o4)OC(C)(C)OC3C2O1 (configuration not stated) | > 100 |
| CCC1OC2C(CC=C(C)C)=C3OC(C)(O)C(C)(CC)C(OC(=O)c4ccccc4)C3=C3OC(=O)C=C1C32 (configuration not stated) | > 100 |
| COn1cc(C=O)c2ccccc21 | > 100 |
| C=CCNC1=C2C[C@@H](C)C[C@@H](OC)[C@@H](OC(=O)CCCN)[C@H](C)/C=C(\C)[C@@H](OC(N)=O)[C@H](OC)/C=C\C=C(/C)C(=O)NC(=CC1=O)C2=O | 18.9 |
| O=C1NC(=O)C(c2c[nH]c3cc(Br)ccc23)=C1c1cn(C(c2ccccc2)(c2ccccc2)c2ccccc2)cn1 | 83.9 |
| CC(C)=CCS(=O)c1ccccc1NC1=CC(=O)CC(C)(C)C1 (configuration not stated) | 0.855 |
| O=C(O)c1nc(-c2ccccn2)c(-c2ccccn2)nc1C(=O)O | 15.3 |
| COC1=C(Br)[C@H](O)[C@@]2(C=C1Br)CC(C(=O)NCCCCCN=C(N)N)=NO2 | > 10 |
| COc1cc(/C=C2\C[C@H]3[C@@H]4CC=C5C[C@@H](O)CC[C@]5(C)[C@H]4CC[C@]3(C)C2=O)cc(OC)c1OC | > 100 |
| C#CCn1ncc2c(SCc3ccccc3)ncnc21 | > 100 |
| O=C1c2cc3c(cc2CC12Cc1cc4c(cc1C2=O)CCC4)CCCC3 (configuration not stated) | > 100 |
| COc1ccc2c(c1C)C(=O)C(O)(CC=C(C)C)O2 (configuration not stated) | > 100 |
| Cc1cccc2c1[C@]13OC(C)[C@]4(C)CC5OC(=O)[C@@]1(C)[C@@H]5[C@]34C(=O)O2 (some centres not stated) | > 100 |
| CCN(CC)/C(Cl)=C(Cl)\C(=C1\Nc2ccc(OC)cc21)[N+](=O)[O-] | > 100 |

Tested on: NCI-H460 lung
Assay: NCI anticancer screen, dose series, 48 h

| SMILES | TGI [µM] |
| --- | --- |
| COc1ccc(CCNC2=CC(=O)c3ncccc3C2=O)cc1OC | 1.75 |
| CN(C)C1=Nc2ccccc2C(=S)N2CSCC12 (configuration not stated) | > 100 |
| CC1(C)OCC2OC3(c4nc(C#N)c(N)o4)OC(C)(C)OC3C2O1 (configuration not stated) | > 100 |
| CCC1OC2C(CC=C(C)C)=C3OC(C)(O)C(C)(CC)C(OC(=O)c4ccccc4)C3=C3OC(=O)C=C1C32 (configuration not stated) | > 100 |
| COn1cc(C=O)c2ccccc21 | > 100 |
| C=CCNC1=C2C[C@@H](C)C[C@@H](OC)[C@@H](OC(=O)CCCN)[C@H](C)/C=C(\C)[C@@H](OC(N)=O)[C@H](OC)/C=C\C=C(/C)C(=O)NC(=CC1=O)C2=O | 59 |
| O=C1NC(=O)C(c2c[nH]c3cc(Br)ccc23)=C1c1cn(C(c2ccccc2)(c2ccccc2)c2ccccc2)cn1 | 31.4 |
| CC(C)=CCS(=O)c1ccccc1NC1=CC(=O)CC(C)(C)C1 (configuration not stated) | > 100 |
| O=C(O)c1nc(-c2ccccn2)c(-c2ccccn2)nc1C(=O)O | 4.85 |
| COC1=C(Br)[C@H](O)[C@@]2(C=C1Br)CC(C(=O)NCCCCCN=C(N)N)=NO2 | > 10 |
| COc1cc(/C=C2\C[C@H]3[C@@H]4CC=C5C[C@@H](O)CC[C@]5(C)[C@H]4CC[C@]3(C)C2=O)cc(OC)c1OC | > 100 |
| C#CCn1ncc2c(SCc3ccccc3)ncnc21 | > 100 |
| O=C1c2cc3c(cc2CC12Cc1cc4c(cc1C2=O)CCC4)CCCC3 (configuration not stated) | > 100 |
| COc1ccc2c(c1C)C(=O)C(O)(CC=C(C)C)O2 (configuration not stated) | > 100 |
| Cc1cccc2c1[C@]13OC(C)[C@]4(C)CC5OC(=O)[C@@]1(C)[C@@H]5[C@]34C(=O)O2 (some centres not stated) | > 100 |
| CCN(CC)/C(Cl)=C(Cl)\C(=C1\Nc2ccc(OC)cc21)[N+](=O)[O-] | > 100 |

Tested on: UO-31 renal
Assay: NCI anticancer screen, dose series, 48 h

| SMILES | TGI [µM] |
| --- | --- |
| COc1ccc(CCNC2=CC(=O)c3ncccc3C2=O)cc1OC | 13.1 |
| CN(C)C1=Nc2ccccc2C(=S)N2CSCC12 (configuration not stated) | > 100 |
| CC1(C)OCC2OC3(c4nc(C#N)c(N)o4)OC(C)(C)OC3C2O1 (configuration not stated) | > 100 |
| CCC1OC2C(CC=C(C)C)=C3OC(C)(O)C(C)(CC)C(OC(=O)c4ccccc4)C3=C3OC(=O)C=C1C32 (configuration not stated) | > 100 |
| COn1cc(C=O)c2ccccc21 | > 100 |
| C=CCNC1=C2C[C@@H](C)C[C@@H](OC)[C@@H](OC(=O)CCCN)[C@H](C)/C=C(\C)[C@@H](OC(N)=O)[C@H](OC)/C=C\C=C(/C)C(=O)NC(=CC1=O)C2=O | 34.2 |
| O=C1NC(=O)C(c2c[nH]c3cc(Br)ccc23)=C1c1cn(C(c2ccccc2)(c2ccccc2)c2ccccc2)cn1 | 31.9 |
| CC(C)=CCS(=O)c1ccccc1NC1=CC(=O)CC(C)(C)C1 (configuration not stated) | > 100 |
| O=C(O)c1nc(-c2ccccn2)c(-c2ccccn2)nc1C(=O)O | 8.15 |
| COC1=C(Br)[C@H](O)[C@@]2(C=C1Br)CC(C(=O)NCCCCCN=C(N)N)=NO2 | > 10 |
| COc1cc(/C=C2\C[C@H]3[C@@H]4CC=C5C[C@@H](O)CC[C@]5(C)[C@H]4CC[C@]3(C)C2=O)cc(OC)c1OC | > 100 |
| C#CCn1ncc2c(SCc3ccccc3)ncnc21 | > 100 |
| O=C1c2cc3c(cc2CC12Cc1cc4c(cc1C2=O)CCC4)CCCC3 (configuration not stated) | > 100 |
| COc1ccc2c(c1C)C(=O)C(O)(CC=C(C)C)O2 (configuration not stated) | > 100 |
| Cc1cccc2c1[C@]13OC(C)[C@]4(C)CC5OC(=O)[C@@]1(C)[C@@H]5[C@]34C(=O)O2 (some centres not stated) | > 100 |
| CCN(CC)/C(Cl)=C(Cl)\C(=C1\Nc2ccc(OC)cc21)[N+](=O)[O-] | > 100 |

Tested on: SK-MEL-28 melanoma
Assay: NCI anticancer screen, dose series, 48 h

| SMILES | TGI [µM] |
| --- | --- |
| COc1ccc(CCNC2=CC(=O)c3ncccc3C2=O)cc1OC | 2.69 |
| CN(C)C1=Nc2ccccc2C(=S)N2CSCC12 (configuration not stated) | > 100 |
| CC1(C)OCC2OC3(c4nc(C#N)c(N)o4)OC(C)(C)OC3C2O1 (configuration not stated) | > 100 |
| CCC1OC2C(CC=C(C)C)=C3OC(C)(O)C(C)(CC)C(OC(=O)c4ccccc4)C3=C3OC(=O)C=C1C32 (configuration not stated) | > 100 |
